Laboratory results from patent US20040198639A1, “Preserved and stable compositions containing peptide copper complexes and methods related thereto” (ProCyte Corporation, priority 2003, published 2004).

Assay: Storage stability of Example 1 solution: amounts of peptide copper complex and preservatives over time
Assay type: physicochemical
Conditions: 40° C., 0 weeks
Procedure: The preservatives used are non-formaldehyde-donating preservatives. The solution was placed in a series of small sealed glass vials and stored at room temperature, at 40° C. and at 50° C. At various measured times, the amount of the peptide copper complex and of the preservatives was determined.

Compound | Amounts when Stored at 40° C.
CCCOC(=O)c1ccc(O)cc1 [Propylparaben, propylparaben] | 0.18 mg/mL
glycyl-L-histidyl-L-lysine:copper(II) | 1.06 mg/mL
COC(=O)c1ccc(O)cc1 [Methylparaben, methylparaben] | 1.83 mg/mL

Same assay, conditions: 40° C., 1 week

Compound | Amounts when Stored at 40° C.
CCCOC(=O)c1ccc(O)cc1 [Propylparaben, propylparaben] | 0.18 mg/mL
glycyl-L-histidyl-L-lysine:copper(II) | 1.04 mg/mL
COC(=O)c1ccc(O)cc1 [Methylparaben, methylparaben] | 1.79 mg/mL

Same assay, conditions: 40° C., 2 weeks

Compound | Amounts when Stored at 40° C.
CCCOC(=O)c1ccc(O)cc1 [Propylparaben, propylparaben] | 0.18 mg/mL
glycyl-L-histidyl-L-lysine:copper(II) | 1.07 mg/mL
COC(=O)c1ccc(O)cc1 [Methylparaben, methylparaben] | 1.80 mg/mL

Same assay, conditions: 40° C., 3 weeks

Compound | Amounts when Stored at 40° C.
CCCOC(=O)c1ccc(O)cc1 [Propylparaben, propylparaben] | 0.18 mg/mL
glycyl-L-histidyl-L-lysine:copper(II) | 1.06 mg/mL
COC(=O)c1ccc(O)cc1 [Methylparaben, methylparaben] | 1.77 mg/mL

Same assay, conditions: 40° C., 4 weeks

Compound | Amounts when Stored at 40° C.
CCCOC(=O)c1ccc(O)cc1 [Propylparaben, propylparaben] | 0.18 mg/mL
glycyl-L-histidyl-L-lysine:copper(II) | 1.06 mg/mL
COC(=O)c1ccc(O)cc1 [Methylparaben, methylparaben] | 1.75 mg/mL

Same assay, conditions: 50° C., 0 weeks

Compound | Amounts when Stored at 50° C.
CCCOC(=O)c1ccc(O)cc1 [Propylparaben, propylparaben] | 0.18 mg/mL
glycyl-L-histidyl-L-lysine:copper(II) | 1.06 mg/mL
COC(=O)c1ccc(O)cc1 [Methylparaben, methylparaben] | 1.83 mg/mL

Same assay, conditions: 50° C., 1 week

Compound | Amounts when Stored at 50° C.
CCCOC(=O)c1ccc(O)cc1 [Propylparaben, propylparaben] | 0.18 mg/mL
glycyl-L-histidyl-L-lysine:copper(II) | 1.05 mg/mL
COC(=O)c1ccc(O)cc1 [Methylparaben, methylparaben] | 1.77 mg/mL

Same assay, conditions: 50° C., 2 weeks

Compound | Amounts when Stored at 50° C.
CCCOC(=O)c1ccc(O)cc1 [Propylparaben, propylparaben] | 0.17 mg/mL
glycyl-L-histidyl-L-lysine:copper(II) | 1.04 mg/mL
COC(=O)c1ccc(O)cc1 [Methylparaben, methylparaben] | 1.70 mg/mL

Same assay, conditions: 50° C., 3 weeks

Compound | Amounts when Stored at 50° C.
CCCOC(=O)c1ccc(O)cc1 [Propylparaben, propylparaben] | 0.17 mg/mL
glycyl-L-histidyl-L-lysine:copper(II) | 1.04 mg/mL
COC(=O)c1ccc(O)cc1 [Methylparaben, methylparaben] | 1.65 mg/mL

Same assay, conditions: 50° C., 4 weeks

Compound | Amounts when Stored at 50° C.
CCCOC(=O)c1ccc(O)cc1 [Propylparaben, propylparaben] | 0.17 mg/mL
glycyl-L-histidyl-L-lysine:copper(II) | 1.04 mg/mL
COC(=O)c1ccc(O)cc1 [Methylparaben, methylparaben] | 1.63 mg/mL

Same assay, conditions: room temperature, 0 weeks

Compound | Amounts when Stored at Room Temperature
CCCOC(=O)c1ccc(O)cc1 [Propylparaben, propylparaben] | 0.18 mg/mL
glycyl-L-histidyl-L-lysine:copper(II) | 1.06 mg/mL
COC(=O)c1ccc(O)cc1 [Methylparaben, methylparaben] | 1.83 mg/mL

Same assay, conditions: room temperature, 1 week

Compound | Amounts when Stored at Room Temperature
CCCOC(=O)c1ccc(O)cc1 [Propylparaben, propylparaben] | 0.18 mg/mL
glycyl-L-histidyl-L-lysine:copper(II) | 1.05 mg/mL
COC(=O)c1ccc(O)cc1 [Methylparaben, methylparaben] | 1.81 mg/mL

Same assay, conditions: room temperature, 2 weeks

Compound | Amounts when Stored at Room Temperature
CCCOC(=O)c1ccc(O)cc1 [Propylparaben, propylparaben] | 0.18 mg/mL
glycyl-L-histidyl-L-lysine:copper(II) | 1.06 mg/mL
COC(=O)c1ccc(O)cc1 [Methylparaben, methylparaben] | 1.84 mg/mL

Same assay, conditions: room temperature, 3 weeks

Compound | Amounts when Stored at Room Temperature
CCCOC(=O)c1ccc(O)cc1 [Propylparaben, propylparaben] | 0.18 mg/mL
glycyl-L-histidyl-L-lysine:copper(II) | 1.07 mg/mL
COC(=O)c1ccc(O)cc1 [Methylparaben, methylparaben] | 1.82 mg/mL

Same assay, conditions: room temperature, 4 weeks

Compound | Amounts when Stored at Room Temperature
CCCOC(=O)c1ccc(O)cc1 [Propylparaben, propylparaben] | 0.18 mg/mL
glycyl-L-histidyl-L-lysine:copper(II) | 1.07 mg/mL
COC(=O)c1ccc(O)cc1 [Methylparaben, methylparaben] | 1.81 mg/mL

Same assay, conditions: room temperature, 28 weeks

Compound | Amounts when Stored at Room Temperature
CCCOC(=O)c1ccc(O)cc1 [Propylparaben, propylparaben] | 0.18 mg/mL
glycyl-L-histidyl-L-lysine:copper(II) | 1.05 mg/mL
COC(=O)c1ccc(O)cc1 [Methylparaben, methylparaben] | 1.80 mg/mL
